{"source": "patent US20100048536A1", "about": "“Novel Substituted Diaryl Azepine Derivatives as Integrin Ligands” (priority 2000, published 2010)", "target": "T1, integrin αvβ3 (Homo sapiens, UniProt P05106+P06756)", "T1 construct": "from tissue; host or cells: human placenta", "experiment": "Integrin αvβ3 assay (competition with vitronectin for binding to solid phase-bound integrin αvβ3)", "details": "integrin αvβ3 from human placenta, qualitative ranking only", "procedure": "For the identification and assessment of integrin αvβ3 ligands, a test system was used which was based on competition between the natural integrin αvβ3 ligand vitronectin and the test substance for binding to solid phase-bound integrin αvβ3\n• Microtiter plates coated with 250 ng/ml of integrin αvβ3 in 0.05 M NaHCO3 pH 9.2; 0.1 ml/well; • saturation with 1% powdered milk/assay buffer; 0.3 ml/well; 0.5 h/RT • 3× washing with 0.05% Tween 20/assay buffer • test substance in 0.1% powdered milk/assay buffer, 50 μl/well+0 μg/ml or 2 μg/ml of human vitronectin (Boehringer Ingelheim T007) in 0.1% powdered milk/assay buffer, 50 μl/well; 1 h/RT • 3× washing with 0.05% Tween 20/assay buffer • 1 μg/ml of anti human vitronectin antibody coupled to peroxidase (Kordia SAVN-APHRP) in 0.1% powdered milk/assay buffer; 0.1 ml/well; 1 h/RT • 3× washing with 0.05% Tween 20/assay buffer • 0.1 ml/well of peroxidase substrate • stop reaction with 0.1 ml/well of 2 M H2SO4 • measurement of the absorption at 450 nm\nIntegrin αvβ3: Human placenta is solubilized with Nonidet and integrin αvβ3 affinity-purified on a GRGDSPK matrix (elution with EDTA). Impurities due to integrin αIIbβ3 and human serum albumin, and the detergent and EDTA are removed by anion-exchange chromatography. […]"}
{"molecule": "CN1C(=O)c2ccccc2C(CC(=O)O)c2ccc(OCCCCNc3ccccn3)cc21", "note": "(stereo not shown) [Example I, {5-Methyl-6-oxo-3-{4-(2-pyridinylamino)-butoxy]-6,11-dihydro 5H-dibenzo[b,e]azepin-11-yl}acetic acid]", "values": [{"measurement": "IC50 values (concentration of the ligand at which 50% of the ligand is displaced)", "result": "best result"}]}
